Values after ≈ are worked out from the molar mass of the structure shown.
Columns and labels:
[1] = system: SK-MEL, KB, BT-549, SK-OV-3, HeLa, LLC-PK1 and Vero cells; test: Cytotoxicity, summary over the cell line panel; assay type: cell-based; details: highest tested concentration of 50 µg/mL; most of the cells
Procedure: (§1) In vitro cytotoxic activity was determined against five human cancer cell lines—malignant melanoma (SK-MEL), epidermal carcinoma oral (KB), ductal carcinoma breast (BT-549), ovary carcinoma (SKOV-3) and cervical (HeLa) cancer cells—and two non-cancerous kidney cell lines (LLC-PK1 and Vero). All cell lines were obtained from the American Type Culture Collection (ATCC, Rockville, MD, USA). Each assay was performed in 96-well tissue culture-treated microplates. The cells were seeded at a density of 25,000 cells/well and incubated for 24 h. Samples at different concentrations were added, and the cells were incubated again for 48 h. At the end of the incubation, the cell viability was determined using Neutral Red dye according to a modification of the procedure used by Borenfreund et al.. IC50 values were determined from dose–response curves of the percent growth inhibition against test concentrations. Doxorubicin was used as a positive control, while DMSO was used as the negative (vehicle) control.

Smad2/3 = test: Luciferase reporter assay, Smad2/3, T98G; assay type: cell-based; details: Homo sapiens; T98G cells; inducer TGF-beta
Procedure: (§2) Hela cells (or T98G cells) from ATCC were plated in white opaque 384-well plates at a density of 4300 cells/well in 30 µL of growth medium (DMEM with 10% FBS and 1% Pen/Strep). The next day, the medium was aspirated and replaced with DMEM containing 1% FBS. The cells were transfected with respective plasmids using X-tremeGENE HP DNA transfection reagent (Roche). After 24 h of transfection, the test agents were added to the transfected cells, followed 30 min later by an inducing agent: interleukin 6 (IL-6) for Stat3, TGF-β for Smad, m-wnt3a for Wnt and PMA for AP-1, NF-κB, E2F, Myc, ETS, Notch and Hedgehog. No inducer was added for FoXO and pTK. After 4 h or 6 h of induction, the cells were lysed via the addition of the One-Glo luciferase assay system (Promega; Madison, WI). The light output was detected in a GloMax®-Multi+ Detection System with Instinct® Software (Promega E 8051). This luciferase assay determines if the test agent is able to inhibit the activation of cancer-related signaling pathways. In the case of FoxO, the enhanced luciferase activity via the test agent was assessed.

Stat3 = test: Luciferase reporter assay, Stat3, T98G; assay type: cell-based; details: Homo sapiens; T98G cells; inducer IL6
Procedure: as §2

Notch = test: Luciferase reporter assay, Notch, T98G; assay type: cell-based; details: Homo sapiens; T98G cells; inducer PMA
Procedure: as §2

Myc = test: Luciferase reporter assay, Myc, T98G; assay type: cell-based; details: Homo sapiens; T98G cells; inducer PMA
Procedure: as §2

NF-κB = test: Luciferase reporter assay, NF-κB, T98G; assay type: cell-based; details: Homo sapiens; T98G cells; inducer PMA
Procedure: as §2

Wnt = test: Luciferase reporter assay, Wnt, T98G; assay type: cell-based; details: T98G cells, inducer m-wnt3a, dash: not inhibited by more than 40% at 50 µmol/L
Procedure: as §2

[2] = Cytotoxicity, Neutral Red, LLC-PK1; assay type: cell-based; details: pig, LLC-PK1 kidney epithelial cells, Na = not active up to 50 µg/mL
Procedure: as §1

μ opioid receptor = molecular target: T1, μ opioid receptor (Homo sapiens, UniProt P35372); test: biochemical; assay type: binding
T1 construct: host or cells: HEK293, stably transfected; membranes
Procedure: HEK293 cells stably transfected with δ, κ and μ opioid subtypes were a generous gift from Roth Laboratories (University of North Carolina at Chapel Hill, N.C., USA). CB and opioid cells were maintained as previously described.
Membranes were purified by first washing the cells with cold PBS and scraping the cells into cold 50 mM Tris-HCl, pH 7.4 buffer, which was centrifuged at 5200× g for 10 min at 4 °C; next, the supernatant was discarded, and the pellet was washed with more Tris-HCl buffer, homogenized via a Sonic Dismembrator (Fisher Scientific, Pittsburgh, PA, USA) and then centrifuged at 24,000× g for 40 min at 4 °C. Finally, the pellet was re-suspended in cold 50 mM Tris-HCl buffer, aliquoted into 2 mL vials and stored at −80 °C. The total membrane protein concentration was measured using a Pierce BCA Protein Assay Kit (Thermo Scientific, Rockford, IL, USA) as per the manufacturer’s protocol.
Cannabinoid and opioid competitive radioligand binding assays were performed as previously described. Saturation experiments were performed for all the receptors to determine the receptor concentration and radioligand dissociation constant (Kd) for the membrane. Percent displacements were evaluated for all the cannabinoid and opioid subtypes with a triplicate of a fixed concentration (10 µg/mL for extracts and fractions and 10 μM for purified compounds). […] Control/test compounds were dissolved in DMSO at 10 μg/mL for extracts and fractions and 10 μM for purified compounds. […] The percent displacement was calculated to represent the ability of the samples to displace the radioligand binding for a given cannabinoid or opioid receptor subtype.
The percent displacement was calculated as follows: 100−binding of compound−nonspecific binding/specific binding×100
The competitive binding assays were performed using 12 serial dilutions of each compound ranging from 0.002 to 300 μM (control compounds were serially diluted from 10 μM to 0.06 nM). The cannabinoid assays were incubated for 90 min at 37 °C with gentle agitation. The opioid assays were incubated for 60 min at room temperature. Bound radioligands were collected on GF/C (cannabinoid) or GF/B plates (opioid) and washed 10 times with ice-cold 50 mM Tris-HCl (pH 7.4)/0.1% BSA (cannabinoid) or ice-cold 50 mM Tris-HCl (pH 7.4) (opioid). Radiodetection was measured with 50 µL (cannabinoid) or 25 µL (opioid) of MicroScint^TM-20 on a TopCount NXT HTS Microplate Scintillation Counter (PerkinElmer, Waltham, MA, USA). The IC50 and Ki values were calculated via a non-linear curve fit model using GraphPad Prism 5.0 software (GraphPad Software, Inc., San Diego, CA, USA). Each compound was tested in triplicate unless stated otherwise.

Hedgehog = test: Luciferase reporter assay, Hedgehog, T98G; assay type: cell-based; details: Homo sapiens; T98G cells; inducer PMA
Procedure: as §2

FoxO = test: Luciferase reporter assay, FoxO, T98G; assay type: cell-based; details: Homo sapiens; T98G cells; no inducer; dash: no activity detected; read-out: IC50, FoxO (None)
Procedure: as §2

AP-1 = test: Luciferase reporter assay, AP-1, T98G; assay type: cell-based; details: T98G cells; inducer PMA
Procedure: as §2

[3] = Cytotoxicity, Neutral Red, HeLa; assay type: cell-based; details: human, HeLa cervical cancer cells, Na = not active up to 50 µg/mL
Procedure: as §1

[4] = Cytotoxicity, Neutral Red, Vero; assay type: cell-based; details: monkey, Vero kidney fibroblasts, Na = not active up to 50 µg/mL
Procedure: as §1

[5] = Cytotoxicity, summary over the cell line panel; assay type: cell-based; details: human, HeLa, SK-MEL, KB and BT-549 cells; read-out: Cytotoxicity IC50 values, span over cell lines
Procedure: as §1

T1 sequence (P35372 whole entry): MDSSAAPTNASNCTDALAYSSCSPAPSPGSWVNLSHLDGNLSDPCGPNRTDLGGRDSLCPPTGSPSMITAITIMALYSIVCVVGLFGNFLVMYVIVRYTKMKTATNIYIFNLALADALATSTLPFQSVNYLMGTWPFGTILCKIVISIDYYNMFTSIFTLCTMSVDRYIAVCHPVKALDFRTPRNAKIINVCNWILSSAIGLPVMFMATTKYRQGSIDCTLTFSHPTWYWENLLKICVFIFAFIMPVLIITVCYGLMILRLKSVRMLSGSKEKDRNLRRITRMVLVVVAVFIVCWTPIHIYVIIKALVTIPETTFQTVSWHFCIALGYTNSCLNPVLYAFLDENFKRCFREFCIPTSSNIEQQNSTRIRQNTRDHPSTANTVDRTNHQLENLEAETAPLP

C[C@H]1CC[C@H]2[C@H](C1)c1c(O)cc(/C=C/c3ccccc3O)cc1OC2(C)C [compound 3, machaeriol C]
Cytotoxicity (in words) [1]: inactive

C=C(C)[C@H]1CC[C@H](C)C[C@@H]1c1c(O)cc(/C=C/c2ccccc2O)cc1O [compound 6, machaeridiol B]
IC50 (Smad2/3): 3 µM
IC50 (Stat3): 1.4 µM
IC50 (Notch): 4.6 µM
IC50 (Myc): 2 µM
IC50 (NF-κB): 4 µM
IC50 (Wnt; Homo sapiens): > 50 µM
IC50, Wnt (m-wnt3a) (Wnt): inactive
IC50 at 48 h [2]: 37 mg/L (≈ 102 µM)
Percent displacement, µ (μ opioid receptor; 10 μM, [3H]-DAMGO): 27.6%
Ki (μ opioid receptor; NA = not active, read-out: μ Ki ± SEM): 4.73 ± 0.84 µM
IC50 (Hedgehog): 5 µM
IC50 (FoxO): > 50 µM
IC50 (AP-1): 4.2 µM
IC50 at 48 h [3]: 37 mg/L (≈ 102 µM)
IC50 at 48 h [4]: 47 mg/L (≈ 129 µM)
IC50 at 48 h [5]: 32 to 38 mg/L (≈ 87.8 to 104 µM)
